Patent US20250147039A1, “Compounds for complexation of rare earth elements and/or s-, p-, d- block metals, their coordination compounds, peptide conjugates, method of their preparation and use thereof” (USTAV ORGANICKE CHEMIE A BIOCHEMIE AV CR V.V.I., priority 2021, published 2025)

Columns and labels:
[1] = Formation of 1,5-cz-[M(Lig)] from Lig and M^III ions (metal dependent click-zip) (Charts 4, 5); type: physicochemical; conditions: for conversion to 1,5-cz-[M(Lig)], Bi^III: 4% DMSO in MOPS/NaOH buffer pH 7.0, TD728 in 50% i-PrOH; for conversion to 1,5-cz-[M(Lig)], Ga^III / conversion to 1,5-cz-[M(Lig)], In^III / conversion to 1,5-cz-[M(Lig)], Sc^III / conversion to 1,5-cz-[M(Lig)], Y^III: MOPS/NaOH buffer pH 7.0; for conversion to 1,5-cz-[M(Lig)], Sc^III / conversion to 1,5-cz-[M(Lig)], Y^III: TD728, TD827 in 50% i-PrOH; for conversion to 1,5-cz-[M(Lig)], Y^III: TD714 sum of two diastereoisomers
[2] = Formation of 1,5-cz-[M(Lig)] from Lig and M^II ions (metal dependent click-zip) (Charts 6, 7); type: physicochemical; conditions: MOPS/NaOH buffer pH 7.0; for conversion to 1,5-cz-[M(Lig)], Ca^II / conversion to 1,5-cz-[M(Lig)], Cd^II / conversion to 1,5-cz-[M(Lig)], Pb^II: TD728 in 50% i-PrOH
[3] = Formation of 1,5-cz-[Ln(Lig)] from Lig and Ln^III ions (metal dependent click-zip), MOPS/NaOH buffer pH 7.0, analytical HPLC (Charts 1, 2); conditions: MOPS/NaOH buffer pH 7.0
[4] = pH dependent formation of 1,5- and 1,4-cz-Lig isomers from Lig (pH dependent click-zip) (Chart 13); type: physicochemical; conditions: A: 1 hour at 80° C.

conversion to 1,5-cz-[M(Lig)], Bi^III ([1]; 1 week at 80° C.): 73%
conversion to 1,5-cz-[M(Lig)], Ga^III ([1]; 1 week at 80° C.): 0%
conversion to 1,5-cz-[M(Lig)], In^III ([1]; 1 week at 80° C.): 8%
conversion to 1,5-cz-[M(Lig)], Sc^III ([1]; 1 week at 80° C.): 35%
conversion to 1,5-cz-[M(Lig)], Y^III ([1]; 1 week at 80° C.): 93%
conversion to 1,5-cz-[M(Lig)], Bi^III ([1]; 1 hour at 80° C.): 29%
conversion to 1,5-cz-[M(Lig)], Ga^III ([1]; 1 hour at 80° C.): 0%
conversion to 1,5-cz-[M(Lig)], In^III ([1]; 1 hour at 80° C.): 0%
conversion to 1,5-cz-[M(Lig)], Sc^III ([1]; 1 hour at 80° C.): 7%
conversion to 1,5-cz-[M(Lig)], Y^III ([1]; 1 hour at 80° C.): 20%
conversion to 1,5-cz-[M(Lig)], Ba^II ([2]; 1 week at 80° C.): 0%
conversion to 1,5-cz-[M(Lig)], Ni^II ([2]; 1 week at 80° C.): 0%
conversion to 1,5-cz-[M(Lig)], Sr^II ([2]; 1 week at 80° C.): 0%
conversion to 1,5-cz-[M(Lig)], Zn^II ([2]; 1 week at 80° C.): 0%
conversion to 1,5-cz-[M(Lig)], Ca^II ([2]; 1 week at 80° C.): 87%
conversion to 1,5-cz-[M(Lig)], Cd^II ([2]; 1 week at 80° C.): 86%
conversion to 1,5-cz-[M(Lig)], Pb^II ([2]; 1 week at 80° C.): 54%
conversion to 1,5-cz-[M(Lig)], Ba^II ([2]; 1 hour at 80° C.): 0%
conversion to 1,5-cz-[M(Lig)], Ni^II ([2]; 1 hour at 80° C.): 0%
conversion to 1,5-cz-[M(Lig)], Sr^II ([2]; 1 hour at 80° C.): 0%
conversion to 1,5-cz-[M(Lig)], Zn^II ([2]; 1 hour at 80° C.): 0%
conversion to 1,5-cz-[M(Lig)], Ca^II ([2]; 1 hour at 80° C.): 16%
conversion to 1,5-cz-[M(Lig)], Pb^II ([2]; 1 hour at 80° C.): 2%
conversion to 1,5-cz-[M(Lig)], Cd^II ([2]; 1 hour at 80° C., TD714 sum of two diastereoisomers): 64%
conversion to 1,5-cz-[Ln(Lig)], Ce^III ([3]; after 1 week at 80° C.): 50%
conversion to 1,5-cz-[Ln(Lig)], Ce^III ([3]; after 1 hour at 80° C.): 1%
conversion to 1,5-cz-[Ln(Lig)], Dy^III ([3]; after 1 week at 80° C.): 92%
conversion to 1,5-cz-[Ln(Lig)], Dy^III ([3]; after 1 hour at 80° C.): 13%
conversion to 1,5-cz-[Ln(Lig)], Er^III ([3]; after 1 week at 80° C.): 95%
conversion to 1,5-cz-[Ln(Lig)], Er^III ([3]; after 1 hour at 80° C.): 32%
conversion to 1,5-cz-[Ln(Lig)], Eu^III ([3]; after 1 week at 80° C.): 89%
conversion to 1,5-cz-[Ln(Lig)], Eu^III ([3]; after 1 hour at 80° C.): 4%
conversion to 1,5-cz-[Ln(Lig)], Gd^III ([3]; after 1 week at 80° C.): 92%
conversion to 1,5-cz-[Ln(Lig)], Gd^III ([3]; after 1 hour at 80° C.): 5%
conversion to 1,5-cz-[Ln(Lig)], Ho^III ([3]; after 1 week at 80° C.): 95%
conversion to 1,5-cz-[Ln(Lig)], Ho^III ([3]; after 1 hour at 80° C.): 21%
conversion to 1,5-cz-[Ln(Lig)], La^III ([3]; after 1 week at 80° C.): 49%
conversion to 1,5-cz-[Ln(Lig)], La^III ([3]; after 1 hour at 80° C.): 1%
conversion to 1,5-cz-[Ln(Lig)], Lu^III ([3]; after 1 week at 80° C.): 96%
conversion to 1,5-cz-[Ln(Lig)], Lu^III ([3]; after 1 hour at 80° C.): 64%
conversion to 1,5-cz-[Ln(Lig)], Nd^III ([3]; after 1 week at 80° C.): 79%
conversion to 1,5-cz-[Ln(Lig)], Nd^III ([3]; after 1 hour at 80° C.): 1%
conversion to 1,5-cz-[Ln(Lig)], Pr^III ([3]; after 1 week at 80° C.): 69%
conversion to 1,5-cz-[Ln(Lig)], Pr^III ([3]; after 1 hour at 80° C.): 1%
conversion to 1,5-cz-[Ln(Lig)], Sm^III ([3]; after 1 week at 80° C.): 86%
conversion to 1,5-cz-[Ln(Lig)], Sm^III ([3]; after 1 hour at 80° C.): 3%
conversion to 1,5-cz-[Ln(Lig)], Tb^III ([3]; after 1 week at 80° C.): 91%
conversion to 1,5-cz-[Ln(Lig)], Tb^III ([3]; after 1 hour at 80° C.): 9%
conversion to 1,5-cz-[Ln(Lig)], Tm^III ([3]; after 1 week at 80° C.): 96%
conversion to 1,5-cz-[Ln(Lig)], Tm^III ([3]; after 1 hour at 80° C.): 48%
conversion to 1,5-cz-[Ln(Lig)], Yb^III ([3]; after 1 week at 80° C.): 96%
conversion to 1,5-cz-[Ln(Lig)], Yb^III ([3]; after 1 hour at 80° C.): 61%
conversion to 1,4-cz-Lig isomer ([4]; 0.1M HClO4 (pH ~1)): 3%
conversion to 1,5-cz-Lig isomer ([4]; 0.1M HClO4 (pH ~1)): 44%
conversion to 1,4-cz-Lig isomer ([4]; 1.0M HClO4 (pH ~0)): 2%
conversion to 1,5-cz-Lig isomer ([4]; 1.0M HClO4 (pH ~0)): 9%
conversion to 1,4-cz-Lig isomer ([4]; pH 2.2, 50 mM aq. buffer): 2%
conversion to 1,5-cz-Lig isomer ([4]; pH 2.2, 50 mM aq. buffer): 17%
conversion to 1,4-cz-Lig isomer ([4]; pH 3.0, 50 mM aq. buffer): 1%
conversion to 1,5-cz-Lig isomer ([4]; pH 3.0, 50 mM aq. buffer): 6%
conversion to 1,4-cz-Lig isomer ([4]; pH 3.8, 50 mM aq. buffer): 1%
conversion to 1,5-cz-Lig isomer ([4]; pH 3.8, 50 mM aq. buffer): 1%
conversion to 1,4-cz-Lig isomer ([4]; pH 4.6, 50 mM aq. buffer): 1%
conversion to 1,5-cz-Lig isomer ([4]; pH 4.6, 50 mM aq. buffer): 1%
conversion to 1,4-cz-Lig isomer ([4]; pH 5.4, 50 mM aq. buffer): 1%
conversion to 1,5-cz-Lig isomer ([4]; pH 5.4, 50 mM aq. buffer): 1%
conversion to 1,4-cz-Lig isomer ([4]; pH 6.2, 50 mM aq. buffer): 1%
Structure (SMILES): C#Cc1cccc(CN2CCN(CC(=O)O)CCN(Cc3cc(-c4ccccc4)cc(CN=[N+]=[N-])n3)CCN(CC(=O)O)CC2)n1 [TD647]
